Read-outs that look alike come from different tables or passages of the source. Residues, ends and D or L forms follow the SMILES beside them.
How the values were obtained:
[1] = biological target: T1, human full-length Protein S (Homo sapiens, UniProt P07225); experiment: Biacore (surface plasmon resonance) on immobilized Protein S; format: binding; conditions: for koff: read-out: koff; for kon: read-out: kon
T1 construct: using human full-length Protein S and human GAS6
T1 sequence (P07225 41-676 limits assumed): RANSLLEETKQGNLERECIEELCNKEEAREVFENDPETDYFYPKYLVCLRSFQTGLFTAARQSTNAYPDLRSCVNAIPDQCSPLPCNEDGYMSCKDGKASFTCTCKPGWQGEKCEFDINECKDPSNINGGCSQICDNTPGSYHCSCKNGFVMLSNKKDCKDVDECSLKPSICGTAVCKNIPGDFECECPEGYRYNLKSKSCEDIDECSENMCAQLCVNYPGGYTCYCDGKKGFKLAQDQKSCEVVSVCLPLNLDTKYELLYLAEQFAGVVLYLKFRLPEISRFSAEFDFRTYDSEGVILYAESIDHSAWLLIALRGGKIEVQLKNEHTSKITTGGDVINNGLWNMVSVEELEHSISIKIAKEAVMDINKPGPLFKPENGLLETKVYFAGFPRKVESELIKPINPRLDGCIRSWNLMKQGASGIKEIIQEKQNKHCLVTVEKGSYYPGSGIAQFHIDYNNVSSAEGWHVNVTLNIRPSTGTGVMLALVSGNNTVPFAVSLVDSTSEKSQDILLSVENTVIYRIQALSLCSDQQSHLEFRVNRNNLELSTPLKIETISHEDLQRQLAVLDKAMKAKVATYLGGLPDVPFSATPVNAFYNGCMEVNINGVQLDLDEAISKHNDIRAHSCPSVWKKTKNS
How it was run: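 Peptides were injected at various concentrations in HBS with 3 mM CaCl2 and 1% DMSO over ~1000 RU of immobilized protein, with 4 M MgCl2 regeneration. kon and koff came from a Langmuir fit, from which KD was calculated; GAS6 served as the anti-target surface.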

[2] = biological target: T2, human GAS6 (Homo sapiens, UniProt Q14393); experiment: Biacore binding to anti-target GAS6
T2 sequence (Q14393 31-678): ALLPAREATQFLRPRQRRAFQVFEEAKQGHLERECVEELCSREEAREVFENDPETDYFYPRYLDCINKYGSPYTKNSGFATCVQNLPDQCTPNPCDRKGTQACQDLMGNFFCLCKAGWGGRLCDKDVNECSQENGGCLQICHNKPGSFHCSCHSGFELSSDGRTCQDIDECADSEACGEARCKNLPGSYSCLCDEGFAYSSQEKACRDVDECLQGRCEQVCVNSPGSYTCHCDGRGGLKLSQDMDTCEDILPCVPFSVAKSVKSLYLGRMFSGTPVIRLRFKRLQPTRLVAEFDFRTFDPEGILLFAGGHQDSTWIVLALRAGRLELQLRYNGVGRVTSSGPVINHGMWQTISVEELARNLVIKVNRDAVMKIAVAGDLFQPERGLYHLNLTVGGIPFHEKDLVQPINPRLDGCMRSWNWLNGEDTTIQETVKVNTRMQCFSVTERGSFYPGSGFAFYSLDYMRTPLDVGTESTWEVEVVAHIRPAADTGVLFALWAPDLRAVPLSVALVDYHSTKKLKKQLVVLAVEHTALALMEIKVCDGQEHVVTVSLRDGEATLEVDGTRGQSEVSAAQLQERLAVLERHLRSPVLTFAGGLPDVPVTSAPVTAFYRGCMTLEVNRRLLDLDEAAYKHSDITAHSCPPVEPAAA
Experimental: Protein S affinity also was determined via Biacore (Biacore 3000 or Biacore T200) using human full-length Protein S and human GAS6. Briefly, 1000 RU of Protein S or GAS6 were immobilized on a CMS chip. In order to probe the kinetics of Protein S binding peptides to Protein S, the peptides were injected at various concentrations in a HBS-buffer containing 3 mM CaCl2 and 1% DMSO to the flow cell and allowed to interact with the immobilized proteins on the sensor chip. The chip could be regenerated with 4 M MgCl2 in HBS-buffer. Sensorgrams were fitted to a Langmuir binding model for the determination of kon and koff and the calculation of KD. Peptides were tested on their specificity to Protein S with peptide binding studies on the anti-target GAS6.
Interactions with the anti-target GAS6 were measured via Biacore (surface plasmon resonance) (see Example 2). The maximum signal from the interaction of the peptides with human GAS6 was much lower than the signals obtained with Protein S as interaction partner. Kinetic analysis of the low GAS6 binding signals was error prone, and sensorgrams were reviewed visually to estimate anti-target binding. […] The affinity of JBS2572 for the anti-target was at least 10 times less (indeed, at least 150 times less) than the affinity of the peptides for human Protein S. The data provided by this example confirm that peptides described herein specifically bind Protein S.

[3] = biological target: T3, C4BP/PS complex (Homo sapiens, UniProt P07225); experiment: LANCE IC50 assay on preformed C4BP/PS complex; format: binding
T3 sequence (P07225 41-676 limits assumed): T1 sequence (P07225 41-676 limits assumed)
Experimental: To investigate the effect of the peptides described herein on PS/C4BP complexes, a LANCE IC50 assay was established using methods similar to those described above. JBS2572 or JBS3216 was added to a preformed C4BP/PS complex. Changes in the complex concentration were followed by recording the TR-FRET signal. For both peptides, a time- and concentration-dependent dissociation of the C4BP/PS complex was observed. The IC50 of JBS3216 was 0.3 nM, and the IC50 of JBS2572 was 2 nM. The time-dependency of the complex reduction was similar for both peptides. After two hours of incubation in the presence of 100 nM JBS2572 or JBS3216, the C4BP/PS complex was reduced to 60% and 50%, respectively. In addition, binding of biotinylated JBS2572 to Protein S was inhibited by C4BP in the LANCE IC50 assay. Pull-down experiments where JBS2697 was coupled to streptavidin sepharose and incubated for one hour at room temperature with (a) Protein S (1.6 pmol) (b) C4BP (8.5 pmol) and (c) Protein S (1.6 pmol)+C4BP (8.5 pmol) supported the results from the modified LANCE IC50 assay.

Kd ([1]; 25° C., read-out: KD for binding to Protein S): 6 nM
koff ([1]; 25° C.): 0.00148 s⁻¹
kon ([1]; 25° C.): 248000 M⁻¹ s⁻¹
Kd ([1]; 37° C., read-out: KD): 4 nM
koff ([1]; 37° C.): 0.00431 s⁻¹
kon ([1]; 37° C.): 1.14e+06 M⁻¹ s⁻¹
Kd ([1]; Biacore, affinity-matured and modified peptides, read-out: KD): 4 nM
affinity for anti-target GAS6 relative to human Protein S (times less) [2]: at least 150 times
binding to GAS6 ([2]; 1 μM peptide, sensorgrams reviewed visually): no specific binding
IC50 ([3]; peptide added to preformed C4BP/PS complex, TR-FRET, read-out: IC50 of dissociation of preformed C4BP/PS complex): 2 nM
C4BP/PS complex reduced to ([3]; two hours of incubation, 100 nM peptide): 60%
Compound: CC(=O)N[C@H](C(=O)NCC(=O)N[C@@H](CC(C)C)C(=O)N[C@H](C(=O)N[C@@H](CO)C(=O)N[C@@H](C)C(=O)NCC(=O)N[C@@H](Cc1c[nH]c2ccccc12)C(=O)N[C@@H](Cc1ccc(O)cc1)C(=O)N[C@@H](CC(=O)O)C(=O)N[C@@H](Cc1ccc(O)cc1)C(=O)N[C@@H](CC(N)=O)C(=O)N[C@@H](Cc1ccccc1)C(=O)N[C@@H](CC(=O)O)C(=O)N[C@@H](Cc1c[nH]cn1)C(=O)N[C@@H](Cc1ccc(O)cc1)C(=O)N[C@@H](CCCNC(=N)N)C(=O)N[C@@H](CCC(=O)O)C(=O)N[C@@H](Cc1ccccc1)C(=O)N[C@H](C(N)=O)[C@@H](C)O)C(C)C)[C@@H](C)O [JBS2572] (Ac-TGLVSAGWYDYNFDHYREFT-NH2)

— patent US10124033B2, “Peptides and methods of use” (BAXALTA INCORPORATED, priority 2014, dated 2018)
